Test results: patent publication US20230278953A1, “WATER SOLUBLE PRODRUGS OF PTBA FOR USE IN HDAC INHIBITION AND ENHANCING RENAL RECOVERY FOLLOWING ACUTE KIDNEY INJURY” (KLOTHO THERAPEUTICS, INC., priority 2020, published 2023)
Converted amounts (≈) assume the structure as drawn.

Columns and labels:
[1] = Determination of Kinetic Solubility; format: physicochemical; settings: phosphate-buffered saline, aqueous buffer, kinetic from dmso stock; PBS pH 7.4, 2% final DMSO, 25° C., two hours; effective range approximately 2-400 μM
Experimental: A 20 mM stock solution of the test compound in 100% DMSO dilutions were prepared to a theoretical concentration of 400 μM in duplicates in phosphate-buffered saline pH 7.4 (138 mM NaCl, 2.7 mM KCl, 10 mM K-phosphate) with 2% final DMSO. The experimental compound dilutions in PBS were further allowed to equilibrate at 25° C. on a thermostatic shaker for two hours and then filtered through HTS filter plates using a vacuum manifold. The filtrates of test compounds were diluted 2-fold with acetonitrile with 2% DMSO before measuring.
In parallel, compound dilutions in 50% acetonitrile/PBS were prepared to theoretical concentrations of 0 μM (blank), 10 μM, 25 μM, 50 μM, 100 μM, and 200 μM with 2% final DMSO to generate calibration curves. Ondansetron was used as reference compound to control proper assay performance 200 μl of each sample was transferred to 96-well plate and measured in 200-550 nm range with 5 nm step.
The concentrations of compounds in PBS filtrate were calculated using a dedicated Microsoft Excel calculation script. Proper absorbance wavelengths for calculations were selected for each compound manually based on absorbance maximums (absolute absorbance unit values for the minimum and maximum concentration points within 0-3 OD range). Each of the final datasets was additionally visually evaluated by the operator and goodness of fit (R2) was calculated for each calibration curve.

[2] = system: cisplatin-induced acute kidney injury (CI-AKI); test: cisplatin-induced acute kidney injury (CI-AKI) mouse model, Compound 22; format: in vivo, C57BL/6J mice; settings: for gradual recovery of mean body weight: cisplatin 11 mg/kg IP Day 0
Experimental: The aim of the study was to investigate the efficacy of test compound(s) in a (mouse) model for acute kidney injury. Specifically, the study investigated the efficacy of test compound(s) in cisplatin-induced acute kidney injury (CI-AKI) mouse model. For example, the effect of daily repeated intraperitoneal (IP) administration of Compound 22 at doses of 50 mg/kg for 7 consecutive days in four different treatment regimens on development of pathology in mice in CI-AKI model was evaluated. Serum analysis for urea (BUN) was performed on the 5th day and 12th days after cisplatin administration. The mean body weight loss per group was calculated every day of the study as percentage loss of initial (day 0) weight for each individual animal.
Study design, animal selection, handling and treatment were all in accordance with the CRO's study protocols and Institutional Animal Care and Use Guidelines Animal treatment and serum samples preparation were conducted by the Animal Laboratory personnel at the CRO. 100 female C57BL/6J mice 11-14 weeks old were randomized by body weight and divided into five groups, 20 animals each. Body weights ranged from 16.9 to 22.5 g with an average body weight across all groups 19.54 g (SD=1.04; CV=5.3%). Each mouse was treated with a single dose via IP route of administration with cisplatin at the dose of 11 mg/kg on the day 0 of the study. The mice in Group 2 and 4 were repeatedly treated with Compound 22 at the dose of 50 mg/kg with an interval of 24 h for seven consecutive days starting from Day 2 or Day 0 of the study, respectively. […]
To induce acute kidney injury, Cisplatin was administered without dilution as a factory-made 1 mg/ml solution for infusion at the injection volume of 11 ml/kg for the dose of 11 mg/kg. […] Urea (BUN) was determined in the serum using a commercial kit according to the manufacturer's instructions. […] The rate of absorbance change at λ=340 nm is proportional to the urea concentration. […]

[3] = system: Ischemia-Reperfusion Induced Acute Kidney Injury (IRI-AKI); test: Ischemia-Reperfusion Induced Acute Kidney Injury (IRI-AKI) in rats; format: in vivo, Sprague Dawley male rats; settings: 10 mg/kg IV, seven days repeated; 60 minutes bilateral renal occlusion; 3 days after IRI; vs Vehicle treated group
Experimental: The aim of the study was to investigate the efficacy of test compounds in the model of Ischemia-Reperfusion Induced Acute Kidney Injury (IRI-AKI) in Sprague Dawley male rats. IRI-AKI model was developed in experimental animals by applying bilateral renal occlusion. The duration of the occlusion was equal 60 minutes. For instance, rhe effects of seven days repeated intravenous (IV) administration of compound 22 of 10 mg/kg on pathology dynamics in rats exposed to IRI-AKI was assessed. […] Serum analysis for creatinine was performed one day prior to ischemia-reperfusion surgery, 24 hours after, and on the 3rd, 5th, and 7th day after IRI-AKI intervention. Study design, animal selection, handling and treatment were all in accordance with the CRO's study protocols and Institutional Animal Care and Use Guidelines Animal treatment and serum samples preparation were conducted by the Animal Laboratory personnel at the CRO. 28 male Sprague Dawley rats 11-14 weeks old were randomized by body weight All experimental animal were anesthetized prior to surgical intervention by Telazol at the dose of 40 mg/kg body weight and Xylazine at the dose of 7 mg/kg body weight. Acute renal injury model was achieved by performing bilateral renal occlusion. […] Creatinine was measured using mModified Jaffe's method, without deproteinization. […]

[4] = system: cisplatin induced acute kidney injury (CI-AKI); test: cisplatin induced acute kidney injury (CI-AKI) in mice, Compound 3; format: in vivo, C57BL/6J mice
Experimental: The aim of the study was to investigate the efficacy of test compounds in the model of cisplatin induced acute kidney injury (CI-AKI) in mice.
Serum analysis for urea (BUN) was performed on the 5th day and 9th days after cisplatin administration. The mean body weight loss per group was calculated every day of the study as percentage loss of initial (day 0) weight for each individual animal.
Study design, animal selection, handling and treatment were all in accordance with the CRO's study protocols and Institutional Animal Care and Use Guidelines Animal treatment and serum samples preparation were conducted by the Animal Laboratory personnel at the CRO. 60 female C57BL/6J mice 9-12 weeks old were randomized by body weight and divided into 2 groups, 30 animals each. Body weights ranged from 13.9 to 22.0 g with an average body weight across all groups 17.75 g (SD=1.30; CV=7.3%). Each mouse was treated with a single dose via IP route of administration with cisplatin at the dose of 11 mg/kg on the day 0 of the study. […] The mice in Group 1 remained untreated after the cisplatin injection until the terminal sacrifice.
Cisplatin was administered without dilution as a factory-made 1 mg/ml solution for infusion at the injection volume of 11 ml/kg for the dose of 11 mg/kg. […] Only freshly prepared formulation was used for each dosing; each working formulation batch was prepared immediately prior to the administration. The working formulations were sterile filtered using 0.2 μm cellulose acetate syringe filters before injections. The dosing volume for the test compound was 5 ml/kg of body weight. The working formulations were administered as transparent clear solutions. Intraperitoneal (IP) route of administration was used in the study. Urea (BUN) was determined in the serum using a commercial kit according to the manufacturer's instructions. […] The rate of absorbance change at λ=340 nm is proportional to the urea concentration. […] Creatinine was measured using mModified Jaffe's method, without deproteinization. […]

[5] = system: renal progenitor cells; settings: zebrafish embryos; proliferation-dependent manner; cited from earlier work
[6] = 50 mg/kg IP, 5th day after the cisplatin injection

Structure (SMILES)	solubility kinetic at 2 h [1]	other results
CC(C)[C@@H](N)C(=O)NCCCOC(=O)CCCSc1ccccc1 [Compound 24]	390 µM (≈ 137 µg/mL)	
O=C(O)CC[C@H](NC(=O)[C@H](CO)NC(=O)CCCSc1ccccc1)C(=O)O [Compound 20]	> 400 µM	
NCCC[C@@H](NC(=O)[C@@H](CCC(=O)O)NC(=O)CCCSc1ccccc1)C(=O)O.O=C(O)C(F)(F)F [Compound 12]	> 400 µM	
O=C(O)C[C@@H](NC(=O)CCCSc1ccccc1)C(=O)O [Compound 14]	387 µM (≈ 120 µg/mL)	
CN1CC2(CC(OC(=O)CCCSc3ccccc3)C2)C1 [Compound 15]	≥ 400 µM	
O=C(O)C[C@@H](OC(=O)CCCSc1ccccc1)C(=O)O [Compound 19]	> 400 µM	
NCCC[C@H](NC(=O)CCCSc1ccccc1)C(=O)N[C@@H](CC(=O)O)C(=O)O.O=C(O)C(F)(F)F [Compound 9]	383 µM	
O=C(CCCSc1ccccc1)OCCOCCO [Compound 7]	385 µM (≈ 109 µg/mL)	
O=C(CCCSc1ccccc1)O[C@@H]1CCNC1.O=C(O)C(F)(F)F [Compound 17]	> 400 µM	
NCCC[C@@H](NC(=O)CCCSc1ccccc1)C(=O)N[C@H](CCC(=O)O)C(=O)O.O=C(O)C(F)(F)F [Compound 11]	391 µM	
N[C@@H](COC(=O)CCCSc1ccccc1)C(=O)N[C@H](CCC(=O)O)C(=O)O.O=C(O)C(F)(F)F [Compound 21]	> 400 µM	
CN1CCC(C)(OC(=O)CCCSc2ccccc2)CC1.O=C(O)C(F)(F)F [Compound 2, 1,4-dimethylpiperidin-4-yl 4-(phenylsulfanyl)butanoate]	> 400 µM	
CN1CCN(CCOC(=O)CCCSc2ccccc2)CC1.O=C(O)C(F)(F)F [Compound 13]	> 400 µM	
O=C(CCCSc1ccccc1)OCCNCCO [Compound 16]	> 400 µM	
O=C(O)CC[C@@H](NC(=O)CCCSc1ccccc1)C(=O)O [Compound 5]	396 µM (≈ 129 µg/mL)	
C[C@H](CN(C)C)OC(=O)CCCSc1ccccc1.O=C(O)C(F)(F)F [Compound 18]	362 µM	
C[N+](C)(C)CCOC(=O)CCCSc1ccccc1.[Cl-] [Compound 22, N,N,N-trimethyl-2-{[4-(phenylsulfanyl)butanoyl]oxy}ethan-1-aminium chloride]	398 µM	gradual recovery of mean body weight ([2]; G2-G3: 50 mg/kg IP once or twice a day for seven days starting Day 2): beginning from the fifth day of the study; mean level of urea in serum compared to G1 ([2]; G2-G5, 50 mg/kg IP, 5th day after the cisplatin injection, vs untreated G1): significantly less; gradual recovery of mean body weight ([2]; G4-G5: 50 mg/kg IP once or twice a day for seven days starting Day 0): beginning from the seventh day of the study; Creatinine level in serum [3]: significantly decreased
Cl.NCCC[C@@H](NC(=O)CCCSc1ccccc1)C(=O)O [Compound 8]	383 µM	
NCCCC[C@@H](N)C(=O)NCCOC(=O)CCCSc1ccccc1.O=C(O)C(F)(F)F.O=C(O)C(F)(F)F [Compound 23]	399 µM	
CN(C)CCOC(=O)CCCSc1ccccc1 [Compound 3, 2-(dimethylamino)ethyl 4-(phenylsulfanyl)butanoate]		mean level of creatinine in serum compared to G1 [4, 6]: significantly less; mean level of urea in serum compared to G1 [4, 6]: significantly less; gradual recovery of mean body weight ([4]; G2: 50 mg/kg IP every 24 h for seven days starting Day 2, cisplatin 11 mg/kg IP Day 0): beginning from the sixth day of the study
O=C(O)CCCSc1ccccc1 [PTBA, 4-(phenylthio)butanoic acid]		effect on pool of renal progenitor cells [5]: seemed to expand the pool of renal progenitor cells
CCN1CCC(OC(=O)CCCSc2ccccc2)CC1.O=C(O)C(F)(F)F [Compound 1, 1-ethylpiperidin-4-yl 4-(phenylsulfanyl)butanoate]	> 400 µM	
O=C(CCCSc1ccccc1)OCC(O)CO (centres unmarked) [Compound 6]	> 400 µM	
